Patent US8258138B2, “Potassium channel blockers” (Xention Limited, priority 2008, dated 2012)

Biological target: T1, human Kv1.3 (Homo sapiens, UniProt P22001)
T1 construct: expressed in transfected cells; host or cells: stably transfected cells grown in medium for CHO cells
Experiment: Kv1.3 Autopatch electrophysiology (whole cell patch-clamp, inhibition of charge movement)
Format: cell-based
Details: compound at 1 μM; cells stably transfected with human Kv1.3; room temperature; total charge during step to +30 mV relative to control; read-out: hKv1.3 % inh.
Description: Kv1.3 Autopatch Electrophysiology Method
Compounds were tested on these cells using the AutoPatch technology in whole cell mode.
The external bathing solution contained (in mM): 150 NaCl, 10 KCl, 1 MgCl2, 3 CaCl2, 10 HEPES, pH 7.4 with NaOH. Patch pipettes were filled with an electrode solution of composition (in mM): 100 K-Gluconate, 20 KCl, 1 MgCl2, 1 CaCl2, 10 HEPES, 11 EGTA, 5 ATP-Na2, 2 Glutathione pH 7.2 with KOH.
Compounds were dissolved in DMSO (100%) and made up in the external bather at a concentration of 1 μM immediately prior to use. All experiments were conducted at room temperature.
A cell suspension (10 ml), with a density of 6×10^6 cells, was aliquoted into a 15 ml centrifuge tube and stored at 4° C. before use. Prior to use a tube was taken and centrifuged at 1000 rpm for 4 mins at room temperature. The supernatant was then discarded, leaving a cell pellet at the bottom of the tube. The pellet was then resuspended using 1 ml of cold (4° C.), filtered (0.22 μm), 0.05% BSA/bather solution (0.05 g BSA/100 ml bather). The bottom of the tube was manually agitated followed by gentle tituration. The cell suspension was then placed in the AutoPatch™ temperature controlled cell-hotel at 14° C. and regularly titurated.
A length of Teflon capillary tubing was dipped into the cell suspension solution, and a column of fluid was taken up by negative pressure. The column of fluid was in electrically connectivity with a Ag/AgCl reference electrode. Borosilicate glass patch pipettes (from 1.5 mm OD, thin-walled filamented, GC150-TF capillary glass, Harvard) were pulled using a DMZ pipette puller (Zeitz Instruments), and were back-filled using the internal pipette solution, being careful that no bubbles remained at the tip or in the body of the pipette. Patch pipettes typically had resistances of 2.5-3.5 MΩ. Once filled, the pipette tip and a proportion of the shaft (˜15 mm) were dipped into Sigmacote (Sigma). The recording pipettes were placed in a multiwell array and mounted on the AutoPatch™ machine. Automated patch-clamping and drug-application was initiated by the operator, but thereafter AutoPatch.exe continued the experiment providing that pre-set conditions and criteria were satisfied.
Whole cell patch-clamp recordings were made using the AutoPatch™ rig, which incorporated an EPC9 or EPC10 amplifier (HEKA, Germany) under control of Pulse software (v8.54 or v8.76, HEKA, Germany), a cell applicator, automated drug application system (DAS), valve controller (VF1) and a suction device all at room temperature. This equipment was completely under the control of AutoPatch.exe and operator intervention was only made when there was a requirement to refill the bather reservoirs or to prevent the loss of a cell due to a technical error.
Cells were continuously perfused with external solution at a flow rate of ˜2 ml/minute.
Electrophysiology voltage-step protocols and analysis of data was performed as follows. Data were sampled at 5 kHz, and filtered with a −3 dB bandwidth of 2.5 kHz. Cells were held at a voltage of −80 mV. Currents were evoked by a voltage step to +30 mV for 500 ms in duration applied every 15 s. Online analysis of the hKv1.3 current during the application of compounds was performed by the Pulse (v8.54 or v8.76, HEKA, Germany), Excel (Microsoft, USA) and AutoPatch™ software, with the total charge measured during the whole of voltage step. Inhibition of charge movement in the presence of drug was calculated relative to control.

T1 sequence (P22001 whole entry): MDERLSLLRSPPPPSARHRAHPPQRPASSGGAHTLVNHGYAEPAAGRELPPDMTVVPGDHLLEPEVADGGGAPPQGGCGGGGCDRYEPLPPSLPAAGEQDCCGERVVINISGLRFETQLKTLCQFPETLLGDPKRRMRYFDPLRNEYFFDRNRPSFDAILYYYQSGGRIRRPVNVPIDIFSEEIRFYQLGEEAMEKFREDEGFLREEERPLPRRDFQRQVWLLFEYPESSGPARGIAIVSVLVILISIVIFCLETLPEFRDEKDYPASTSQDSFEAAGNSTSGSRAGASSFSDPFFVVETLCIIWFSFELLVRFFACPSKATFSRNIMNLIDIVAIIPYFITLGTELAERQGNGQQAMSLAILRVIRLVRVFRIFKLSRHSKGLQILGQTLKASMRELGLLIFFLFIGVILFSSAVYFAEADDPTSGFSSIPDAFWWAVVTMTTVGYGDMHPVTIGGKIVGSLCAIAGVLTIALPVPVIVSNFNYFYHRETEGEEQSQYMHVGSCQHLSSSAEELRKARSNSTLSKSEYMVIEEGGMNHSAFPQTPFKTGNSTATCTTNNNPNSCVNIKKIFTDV

SMILES	inhibition at 1 µM [%]
CC1CCCN(C(=O)c2ccc(N(Cc3ccccc3)S(=O)(=O)c3cn(C)cn3)cc2)C1 (centres unmarked) [Example 74, 1-Methyl-1H-imidazole-4-sulfonic acid benzyl-[4-(3-methyl-piperidine-1-carbonyl)-phenyl]-amide]	51
Cn1cnc(S(=O)(=O)N(Cc2ccccc2)c2ccc(C(=O)N3CCCC(C(F)(F)F)C3)cc2)c1 (centres unmarked) [Example 78, 1-Methyl-1H-imidazole-4-sulfonic acid benzyl-[4-(3-trifluoromethyl-piperidine-1-carbonyl)-phenyl]-amide]	74
Cn1cnc(S(=O)(=O)N(Cc2ccccc2)c2ccc(C(=O)N3CCN(C(=O)OC(C)(C)C)C(c4ccccc4)C3)cc2)c1 (centres unmarked) [Example 81, 4-{4-[Benzyl-(1-methyl-1H-imidazole-4-sulfonyl)-amino]-benzoyl}-2-phenyl-piperazine-1-carboxylic acid tert-butyl ester]	57
Cn1ccc(S(=O)(=O)N(Cc2ccccc2)c2ccc(C(=O)N3CCOC(c4ccccc4)C3)cc2)n1 (centres unmarked) [Example 84, 1-Methyl-1H-pyrazole-3-sulfonic acid benzyl-[4-(2-phenyl-morpholine-4-carbonyl)-phenyl]-amide]	89
Cn1ccc(S(=O)(=O)N(Cc2ccc(Cl)cc2)c2ccc(C(=O)N3CCCCC3)cc2)n1 [Example 86, 1-Methyl-1H-pyrazole-3-sulfonic acid (4-chloro-benzyl)-[4-(piperidine-1-carbonyl)-phenyl]-amide]	88
Cn1ccc(S(=O)(=O)N(Cc2ccccc2)c2ccc(C(=O)N3CCNC(c4ccccc4)C3)cc2)n1 (centres unmarked) [Example 88, 1-Methyl-1H-pyrazole-3-sulfonic acid benzyl-[4-(3-phenyl-piperazine-1-carbonyl)-phenyl]-amide]	46
Cn1nccc1S(=O)(=O)N(Cc1ccccc1)c1ccc(C(=O)N2CCNC(c3ccccc3)C2)cc1 (centres unmarked) [Example 89, 2-Methyl-2H-pyrazole-3-sulfonic acid benzyl-[4-(3-phenyl-piperazine-1-carbonyl)-phenyl]-amide]	61
CN1CCN(C(=O)c2ccc(N(Cc3ccccc3)S(=O)(=O)c3ccnn3C)cc2)CC1c1ccccc1 (centres unmarked) [Example 91, 2-Methyl-2H-pyrazole-3-sulfonic acid benzyl-[4-(4-methyl-3-phenyl-piperazine-1-carbonyl)-phenyl]-amide]	81
CC1CCCN(C(=O)c2ccc(N(Cc3ccc(Cl)cc3)S(=O)(=O)c3cn(C)cn3)cc2)C1 (centres unmarked) [Example 92, 1-Methyl-1H-imidazole-4-sulfonic acid (4-chloro-benzyl)-[4-(3-methyl-piperidine-1-carbonyl)-phenyl]-amide]	61
CC1CCCN(C(=O)c2ccc(N(Cc3ccc(F)cc3)S(=O)(=O)c3cn(C)cn3)cc2)C1 (centres unmarked) [Example 94, 1-Methyl-1H-imidazole-4-sulfonic acid (4-fluoro-benzyl)-[4-(3-methyl-piperidine-1-carbonyl)-phenyl]-amide]	52
Cc1ccc(CN(c2ccc(C(=O)N3CCCC(C)C3)cc2)S(=O)(=O)c2cn(C)cn2)cc1 (centres unmarked) [Example 95, 1-Methyl-1H-imidazole-4-sulfonic acid (4-methyl-benzyl)-[4-(3-methyl-piperidine-1-carbonyl)-phenyl]-amide]	51
Cn1cnc(S(=O)(=O)N(Cc2ccc(Cl)c(Cl)c2)c2ccc(C(=O)N3CCCCC3)cc2)c1 [Example 96, 1-Methyl-1H-imidazole-4-sulfonic acid (3,4-dichloro-benzyl)-[4-(piperidine-1-carbonyl)-phenyl]-amide]	48
Cn1cnc(S(=O)(=O)N(Cc2ccc(F)c(Cl)c2)c2ccc(C(=O)N3CCCCC3)cc2)c1 [Example 97, 1-Methyl-1H-imidazole-4-sulfonic acid (3-chloro-4-fluoro-benzyl)-[4-(piperidine-1-carbonyl)-phenyl]-amide]	61
CC1CCCN1C(=O)c1ccc(N(Cc2ccc(Cl)cc2)S(=O)(=O)c2cn(C)cn2)cc1 (centres unmarked) [Example 98, 1-Methyl-1H-imidazole-4-sulfonic acid (4-chloro-benzyl)-[4-(2-methyl-pyrrolidine-1-carbonyl)-phenyl]-amide]	51
CC1CCN(C(=O)c2ccc(N(Cc3ccc(Cl)cc3)S(=O)(=O)c3cn(C)cn3)cc2)C1 (centres unmarked) [Example 99, 1-Methyl-1H-imidazole-4-sulfonic acid (4-chloro-benzyl)-[4-(3-methyl-pyrrolidine-1-carbonyl)-phenyl]-amide]	52
Cn1cnc(S(=O)(=O)N(Cc2ccc(Cl)cc2)c2ccc(C(=O)N3CCC(F)(F)C3)cc2)c1 [Example 100, 1-Methyl-1H-imidazole-4-sulfonic acid (4-chloro-benzyl)-[4-(3,3-difluoro-pyrrolidine-1-carbonyl)-phenyl]-amide]	52

Next, values leading:

inhibition at 1 µM [%]	SMILES
64	Cn1cnc(S(=O)(=O)N(Cc2ccccc2)c2ccc(C(=O)N3CCN(c4ccccc4F)CC3)cc2)c1 [Example 75, 1-Methyl-1H-imidazole-4-sulfonic acid benzyl-{4-[4-(2-fluoro-phenyl)-piperazine-1-carbonyl]-phenyl}-amide]
45	Cn1cnc(S(=O)(=O)N(Cc2ccccc2)c2ccc(C(=O)N3CCN(CC4CCCCC4)CC3)cc2)c1 [Example 76, 1-Methyl-1H-imidazole-4-sulfonic acid benzyl-[4-(4-cyclohexylmethyl-piperazine-1-carbonyl)-phenyl]-amide]
42	Cn1cnc(S(=O)(=O)N(Cc2ccccc2)c2ccc(C(=O)N3CCN(c4nccs4)CC3)cc2)c1 [Example 77, 1-Methyl-1H-imidazole-4-sulfonic acid benzyl-[4-(4-thiazol-2-yl-piperazine-1-carbonyl)-phenyl]-amide]
60	Cn1cnc(S(=O)(=O)N(Cc2ccccc2)c2ccc(C(=O)N3CCC(F)(F)CC3)cc2)c1 [Example 79, 1-Methyl-1H-imidazole-4-sulfonic acid benzyl-[4-(4,4-difluoro-piperidine-1-carbonyl)-phenyl]-amide]
30	Cn1cnc(S(=O)(=O)N(Cc2ccccc2)c2ccc(C(=O)N3CCCC(F)C3)cc2)c1 (centres unmarked) [Example 80, 1-Methyl-1H-imidazole-4-sulfonic acid benzyl-[4-(3-fluoro-piperidine-1-carbonyl)-phenyl]-amide]
78	Cn1cnc(S(=O)(=O)N(Cc2ccccc2)c2ccc(C(=O)N3CCC(c4ccc(F)cc4)C3)cc2)c1 (centres unmarked) [Example 82, 1-Methyl-1H-imidazole-4-sulfonic acid benzyl-{4-[3-(4-fluoro-phenyl)-pyrrolidine-1-carbonyl]-phenyl}-amide]
64	CN1CCN(C(=O)c2ccc(N(Cc3ccccc3)S(=O)(=O)c3cn(C)cn3)cc2)CC1c1ccccc1 (centres unmarked) [Example 83, 1-Methyl-1H-imidazole-4-sulfonic acid benzyl-[4-(4-methyl-3-phenyl-piperazine-1-carbonyl)-phenyl]-amide]
